From patent US5719296A, “Pseudopeptide lactam inhibitors of peptide binding to MHC class II proteins” (Merck & Co., Inc., priority 1996, dated 1998)
Like-named read-outs stand apart in the source and are kept apart here.

Target: T1, DR1Dw1 (Homo sapiens, UniProt P01903+P01911, A100R/D57E/F55L/F60I/F76Y/I96L/L162R/M171V/P40L/Q125E/R42F/V115G/Y59C)
T1 construct: these are Drosophila transmembrane DR; made in house; host or cells: Drosophila (cells)
Assay: Inhibition assay: inhibition of biotinylated RMBP 90-102 peptide binding to MHC class II DR1
Protocol: For direct binding assays, optimal concentrations of affinity purified DR1Dwl (1.25 nM) or DR4Dw4 (10 nM) are incubated with serial dilutions of biotinylated rat myelin basic protein (RMBP) 90-102 in PBS (phosphate buffered saline) containing 0.75% octyl glucoside, pH 6.5, in 96-well polypropylene plates for 16 to 20 h at 37° C. In studies optimizing the assay it was determined that only between 5 to 10% of the DR molecules are capable of binding added peptide. Therefore, the effective concentration of DR1Dw1 and DR4Dw4 was approximately 0.125 and 1.0 nM, respectively. […] The DR-peptide complexes (50 μL) are transferred to wells of a 96-well EIA plate precoated with LB3.1, the monoclonal antibody which recognizes the DR alleles of MHC Class II, and blocked with PBS with fetal calf serum (FCS). An additional 50 μL of 50 mM Tris, pH 7.0, containing 0.75% octyl glucoside is added to each well and the mixture incubated overnight at 4° C. Excess peptide is removed by washing with PBS containing 0.05% Tween 20 (Polyoxyethylene sorbitan monolaurate) and 0.01% NAN3. Europium-labeled streptavidin (Wallac Inc.) is added and incubated overnight. After washing, complexes are measured by the addition of Enhance™ buffer, the tradename for 0.1 M acetate phthalate buffer, pH 3.2, containing 0.1% Triton X-100, tradename for polyoxyethylene ethers and other surface active compounds of Union Carbide Chemicals and Plastics Co., Inc. (particularly, a non-ionic surfactant for recovery of membrane components under non-denaturing conditions) 15 µM 2-naphthoyltrifluoroacetone, and 50 μM tri-N-octylphosphine oxide, which buffer releases the chelated europium from streptavidin and forms a highly fluorescent micellar solution. The resultant fluorescence is measured using a fluorescent plate reader (e.g., DELPHIA, Wallac, Inc.). The data are analyzed using a four-parameter logistical curve […] program (e.g., SigmaPlot) that calculates the concentration of biotinylated peptide giving a half-maximal signal (ED50).
The inhibition assay format is identical to the procedure described above with the exception that the unlabeled antagonist is serially diluted and incubated with constant concentrations of biotinylated RMBP 90-102 (0.3 nM for DR1Dw1 or 0.9 nM for DR4Dw4) and the MHC class II proteins. The concentration of unlabeled compound that prevents 50% of the labeled peptide from binding is the IC50 value. The concentration of the biotinylated RMBP 90-102 in each assay is experimentally determined to be […] one-sixth of its measured ED50 to assure the inhibition was primarily measuring the binding characteristics of the competitor.
In particular, a protocol for carrying out the inhibition assay is given below.
Preparation of Antibody Plate
Add 115 μL of 5 μg/mL LB3.1 in 50 mM Tris HCl pH 9.6/azide to each well of a Costar EIA plate. Incubate the plate overnight at 4° C.
Wash the plate 4 times with water/0.05% Tween-20/azide. Add 200 μL of PBS/5% FCS/azide for 1 hour at 4° C. to block the plate. The plate may be held at this point for later use or used immediately.
Flip out the block. It is not necessary to wash the plate. At 50 μL of load buffer (50 mM Tris HCl, pH 8.0 0.75% octylglucoside). Add to this volume 50 μL of the reaction mix from day 2, step 3 below.
Preparation of Reaction Mixture
(1) Add the following to a polypropylene round bottom 96-well plate such as a Costar #3794:
(A) Diluent (Ca Mg free PBS adjusted to pH 6.5 with 0.1 M KH2 PO4/0.75% octylglucoside/azide).81 μL
(B) Competitor at 16.6 times the final concentration in diluent or diluent alone. 9 μL
(C) Biotinylated RMBP (BRMBP) 90-102; 1.5 nM for DR1 or 4.5 nM for DR4 (These are 5 × stocks of final concentrations of 0.3 nM/DR1 or 0.9 nM/DR4)
(D) 6.25 nM DR1Dw1 or 50 nM DR4Dw4 (these are Drosophila transmembrane DR) (This is a 5× stock of the final concentration of 1.25 or 10 nM.) 30 μL Add the DR last and mix well at this time 150 μL
(2) Incubate at 37° C. for 20 min and 5 hours. […]

[1] = 20 min incubation at 37° C., 0.3 nM biotinylated RMBP 90-102, 1.25 nM DR1Dw1, pH 6.5, read-out: IC50 /μM @ 20'
[2] = 5 hours incubation at 37° C., 0.3 nM biotinylated RMBP 90-102, 1.25 nM DR1Dw1, pH 6.5, read-out: IC50 /μM @ 5 h

| Substance | IC50 [1] [µM] | IC50 [2] [µM] |
| --- | --- | --- |
| EtOCO-Phe-(S)-γ-Lactam-Nva-Leu-NH2 [Example 21] | 3.1 | 10.5 |
| EtOCO-Phe-(S)-δ-Lactam-L-Nva-Leu-NH2 [27(61)] | 3.4 | 10 |
| [4H]-Naphthyl-CH2 -(R)-γ-Lactam-Nva-Leu-NH2 [Example 50] | 2.5 | 23.5 |
| cHp(CH2)3 -(R)-γ-Lactam-Nva-Leu-NH2 [Example 14] | 0.34 | 2.9 |
| cHp(CH2)3 -α-Propyl-(R)-γ-Lactam-Nva-Leu-NH2 [Example 32] | 0.15 | 1.4 |
| cHx((CH3)C=CHCH2)-(R)-γ-Lactam-Nva-Leu-NH2 [Example 11] | 0.76 | 5.2 |
| cHx((CH3)CHCH2 CH2 NH)-(R)-γ-Lactam-Nva-Leu-NH2 [Example 12] | 0.65 | 5.6 |
| cHx(CH2)3 -α-(3-Aminopropyl)-(R)-γ-Lactam-Nva-NHNBu(COOEt) [Example 53] | 0.68 | 3.1 |
| cHx(CH2)3 -α-(3-Hydroxypropyl)-(R)-γ-Lactam-Nva-Leu-NH2 [Example 33] | 0.13 | 0.86 |
| cHx(CH2)3 -α-(3-Hydroxypropyl)-(R)-γ-Lactam-Nva-NHNBu(COOEt) [Example 51] | 0.16 | 0.63 |
| cHx(CH2)3 -α-(3-guanidinopropyl)-(R)-γ-Lactam-Nva-NHNBu(COOEt) [Example 54] | 0.21 | 0.93 |
| cHx(CH2)3 -α-propyl-(R)-γ-Lactam-Nva-NHNBu(COOEt) [Example 35] | 0.25 | 2 |
| cHx(CH23 -α-(3-Azidopropyl)-(R)-γ-Lactam-Nva-NHNBu(COOEt) [Example 52] | 0.16 | 0.62 |
